In US20080119515A1, “Heterocyclic Kinase Inhibitors: Methods of Use and Synthesis” (priority 2003, published 2008):

Biological target: T1, ZAP-70 (Homo sapiens, UniProt P43403)
T1 sequence (P43403 1-619): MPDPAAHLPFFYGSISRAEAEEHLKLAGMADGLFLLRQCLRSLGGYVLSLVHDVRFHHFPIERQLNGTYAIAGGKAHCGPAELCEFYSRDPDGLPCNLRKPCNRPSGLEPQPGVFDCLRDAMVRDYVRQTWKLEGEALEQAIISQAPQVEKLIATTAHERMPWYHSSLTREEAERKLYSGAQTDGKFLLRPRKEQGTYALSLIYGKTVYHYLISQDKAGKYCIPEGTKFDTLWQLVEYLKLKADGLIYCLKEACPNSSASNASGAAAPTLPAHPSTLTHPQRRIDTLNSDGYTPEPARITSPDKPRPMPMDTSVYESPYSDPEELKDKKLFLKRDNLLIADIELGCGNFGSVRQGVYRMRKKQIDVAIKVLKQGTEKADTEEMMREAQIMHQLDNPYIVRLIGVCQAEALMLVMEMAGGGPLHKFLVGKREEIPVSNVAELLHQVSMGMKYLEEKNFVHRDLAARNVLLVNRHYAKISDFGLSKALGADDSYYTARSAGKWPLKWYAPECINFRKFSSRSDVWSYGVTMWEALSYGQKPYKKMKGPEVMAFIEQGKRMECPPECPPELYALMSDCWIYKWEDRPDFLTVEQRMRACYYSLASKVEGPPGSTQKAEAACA
Assay: DELFIA assay (ZAP-70 kinase, phosphorylation of biotinylated poly(glu,tyr))
Format: biochemical
Conditions: ZAP-70 DELFIA, class symbols; read-out: Activity (IC50 in vitro)
Procedure: Before initiation of kinase reactions, compounds were pre-incubated with ZAP-70. Pre-incubation reactions contained 62.5 mM Mops pH 7.0, 12.5 mM MgCl2, 12.5% glycerol, 3.1 nM ZAP-70, 62.5 nM biotinylated poly(glu,Tyr), 0.1 mg/ml BSA, 6.25% DMSO and […] compound in a total volume of […]. After a 10 minute room temperature incubation, 10 ml of 5 mM ATP was added to start the reaction. Reactions were incubated at room temperature for 30 minutes then terminated by addition of 5 ml 500 mM EDTA. The amount of phosphate transferred to biotinylated poly(glu,tyr) was measured using the Dissociation Enhanced Lanthanide Fluorescence Immuno-assay (DELFIA) from Perkin Elmer according to manufacturers protocol. Briefly, biotinylated […] was captured on streptavidin coated plates, washed twice, then incubated with Europium labeled-anti-phosphotyrosine antibody. Free antibody was removed with six washes, Europium was dissociated from the antibody, and Europium fluorescence was measured at using an excitation wavelength of 340 nm and an emission wavelength of 615 nm.

SMILES	IC50 [µM]
C[C@H](CNc1cc(C(=O)N2CCC[C@H]2CN2CCCC2)c2cc(-c3ccc(C#N)cc3)ccc2n1)c1ccccc1 [Compound 187]	> 10
Nc1cc(-c2ccc3c(c2)OCO3)cc2c(C(=O)N3CCC[C@H]3CN3CCCC3)cc(CCc3ccc(C(F)(F)F)cc3)nc12 [Compound 432]	< 1
COc1ccccc1CNc1cc(C(=O)N2CCC[C@H]2CN2CCCC2)c2cc(-c3ccc(C#N)cc3)ccc2n1 [Compound 151]	> 10
O=C(c1cc(CCCc2ccccc2)nc2ccc(-c3ccc4c(c3)OCO4)cc12)N1CCC[C@H]1CN1CCCC1 [Compound 434]	< 1
O=C(c1cc(C#Cc2cccc(C(F)(F)F)c2)nc2ccc(-c3ccc4c(c3)OCO4)cc12)N1CCC[C@H]1CN1CCCC1 [Compound 404]	< 1
O=C(c1cc(Cl)ncc1Cl)N1CCC[C@H]1CN1CCCC1 [Compound 112]	> 10
N#Cc1ccc(-c2ccc3nc(CCc4ccccc4)cc(C(=O)N4CCC[C@H]4CN4CCCC4)c3c2)cc1 [Compound 391]	> 10
CN(CCc1ccccc1)c1cc(C(=O)N2CCC[C@H]2CN2CCCC2)cc(N(C)CCc2ccccc2)n1 [Compound 372]	1 to 10
O=C(c1cc(/C=C/c2ccc(F)cc2)nc2ccc(-c3ccc4c(c3)OCO4)cc12)N1CCC[C@H]1CN1CCCC1 [Compound 131]	1 to 10
O=C(NCc1ccc(Cl)cc1)c1cc(C(=O)N2CCC[C@H]2CN2CCCC2)c2cc(-c3ccc4c(c3)OCO4)ccc2n1 [Compound 140]	< 1
N#Cc1ccc(-c2ccc3nc(NCc4cc(F)cc(C(F)(F)F)c4)cc(C(=O)N4CCC[C@H]4CN4CCCC4)c3c2)cc1 [Compound 195]	> 10
CN(Cc1cccc2ccccc12)c1cc(C(=O)N2CCC[C@H]2CN2CCCC2)c2cc(-c3ccc(C#N)cc3)ccc2n1 [Compound 246]	> 10
O=C(c1cc(NCc2ccc(C(F)(F)F)cc2)nc2ccc(-c3cccc([C@H]4CNCC[C@@H]4O)c3)cc12)N1CCC[C@H]1CN1CCCC1 [Compound 427]	> 10
N#Cc1ccc(-c2ccc3nc(NCC4(c5ccc(Cl)cc5)CC4)cc(C(=O)N4CCC[C@H]4CN4CCCC4)c3c2)cc1 [Compound 260]	> 10
N#Cc1ccc(-c2ccc3nc(NCc4ccc(F)c(F)c4)cc(C(=O)N4CCC[C@H]4CN4CCCC4)c3c2)cc1 [Compound 162]	> 10
CCC(Nc1cc(C(=O)N2CCC[C@H]2CN2CCCC2)c2cc(-c3ccc4c(c3)OCO4)ccc2n1)c1ccccc1 (some centres unmarked) [Compound 43]	< 1
O=C(c1cc(NCc2ccc(C(F)(F)F)cc2)nc2ccc(-c3ccc4c(c3)OCO4)cc12)N1CCC[C@H]1CNC1CC1 [Compound 361]	1 to 10
O=C(c1cc(NCc2ccc(C(F)(F)F)cc2)nc2ccc(-c3ccc(CO)cc3)cc12)N1CCC[C@H]1CN1CCCC1 [Compound 417]	> 10
O=C(c1cc(Nc2ccc3c(c2)OCO3)nc2ccc(-c3ccc4c(c3)OCO4)cc12)N1CCC[C@H]1CN1CCCC1 [Compound 53]	< 1
C[C@H](c1ccccc1)N(C)c1cc(C(=O)N2CCC[C@H]2CN2CCCC2)c2cc(-c3ccc(C#N)cc3)ccc2n1 [Compound 200]	> 10
C[C@@H](c1cccc2ccccc12)N(C)c1cc(C(=O)N2CCC[C@H]2CN2CCCC2)c2cc(-c3ccc(C#N)cc3)ccc2n1 [Compound 219]	> 10
N#Cc1ccc(-c2ccc3nc(N[C@H]4CCCc5ccccc54)cc(C(=O)N4CCC[C@H]4CN4CCCC4)c3c2)cc1 [Compound 206]	> 10
O=C(c1cc(NCc2ccccc2)nc2ccc(-c3ccc4c(c3)OCO4)cc12)N1CCC[C@H]1CN1CCCC1 [Compound 4]	< 1
N#Cc1ccc(-c2ccc3nc(NCc4cc(F)ccc4F)cc(C(=O)N4CCC[C@H]4CN4CCCC4)c3c2)cc1 [Compound 163]	> 10

SMILES	IC50 [µM]
N#Cc1ccc(-c2ccc3nc(NCc4ccc(C(F)(F)F)cc4)cc(C(=O)N4CCC[C@H]4CN4CCCC4)c3c2)cc1 [Compound 107]	< 1
Clc1cc(N2CCC[C@H]2CN2CCCC2)c2cc(-c3ccc4c(c3)OCO4)ccc2n1 [Compound 100]	> 10
CN(Cc1ccccc1)c1cc(C(=O)N2CCC[C@H]2CN2CCCC2)c2cc(Oc3ccccc3)ccc2n1 [Compound 129]	1 to 10
N=C(NC1CCCC1)[C@@H]1CCCN1C(=O)c1cc(NCc2ccc(C(F)(F)F)cc2)nc2ccc(-c3ccc4c(c3)OCO4)cc12 [Compound 379]	> 10
O=C(c1cc2cc(-c3ccc4c(c3)OCO4)ccc2nc1NCc1ccc(C(F)(F)F)cc1)N1CCCC1CN1CCCC1 (centres unmarked) [Compound 128]	> 10
O=C(c1cc(NCc2ccc(C(F)(F)F)cc2)nc2ccc(/C=C/c3ccccc3)cc12)N1CCC[C@H]1CN1CCCC1 [Compound 290]	1 to 10
C[C@H](Nc1cc(C(=O)N2CCC[C@H]2CN2CCCC2)c2cc(-c3ccc4c(c3)OCO4)ccc2n1)c1ccc(Cl)cc1 [Compound 331]	< 1
O=C(c1cc(NCc2ccccn2)nc2ccc(-c3ccc4c(c3)OCO4)cc12)N1CCC[C@H]1CN1CCCC1 [Compound 33]	1 to 10
O=C(c1cc(CCc2ccccc2)nc2ccc(-c3ccc4c(c3)OCO4)cc12)N1CCC[C@H]1CN1CCCC1 [Compound 134]	1 to 10
N#Cc1ccc(-c2ccc3nc(NCc4ccc(F)cc4C(F)(F)F)cc(C(=O)N4CCC[C@H]4CN4CCCC4)c3c2)cc1 [Compound 239]	> 10
COc1cc(-c2ccc3nc(NCc4ccc(C(F)(F)F)cc4)cc(C(=O)N4CCC[C@H]4CN4CCCC4)c3c2)ccc1O [Compound 418]	> 10
CN1CCN(c2ccc(Nc3cc(Nc4ccc(N5CCN(C)CC5)cc4)c4cc(-c5ccc6c(c5)OCO6)ccc4n3)cc2)CC1 [Compound 448]	< 1
O=C(c1cc(NC2CCCC2)nc2ccc(-c3ccc4c(c3)OCO4)cc12)N1CCC[C@H]1CN1CCCC1 [Compound 28]	> 10
O=C(c1cc(NCc2ccc(C(F)(F)F)cc2)nc2ccc(/C=C/c3cccc(C(F)(F)F)c3)cc12)N1CCC[C@H]1CN1CCCC1 [Compound 288]	1 to 10
CCCCCc1ccc(CCc2cc(C(=O)N3CCC[C@H]3CN3CCCC3)c3cc(-c4ccc5c(c4)OCO5)ccc3n2)cc1 [Compound 398]	< 1
C[Si](C)(C)CCc1cc(C(=O)N2CCC[C@H]2CN2CCCC2)c2cc(-c3ccc4c(c3)OCO4)ccc2n1 [Compound 408]	> 10
O=C(c1cc(CCc2ccccc2F)nc2ccc(-c3ccc4c(c3)OCO4)cc12)N1CCC[C@H]1CN1CCCC1 [Compound 395]	< 1
N#Cc1ccc(-c2ccc3nc(NCc4ccc(Cl)cc4Cl)cc(C(=O)N4CCC[C@H]4CN4CCCC4)c3c2)cc1 [Compound 166]	> 10
N#Cc1ccc(-c2ccc3nc(NCc4cccc(-c5ccccc5)c4)cc(C(=O)N4CCC[C@H]4CN4CCCC4)c3c2)cc1 [Compound 217]	> 10
Cc1noc(C)c1-c1ccc2nc(NCc3ccc(C(F)(F)F)cc3)cc(C(=O)N3CCC[C@H]3CN3CCCC3)c2c1 [Compound 338]	> 10
N#Cc1ccc(-c2ccc3nc(NCc4ccc(F)cc4)cc(C(=O)N4CCC[C@H]4CN4CCCC4)c3c2)cc1 [Compound 159]	> 10
CC(CNC(=O)c1cc(C(=O)N2CCC[C@H]2CN2CCCC2)c2cc(-c3ccc4c(c3)OCO4)ccc2n1)c1ccccc1 (some centres unmarked) [Compound 142]	1 to 10
O=C(c1cc(CCc2ccccc2)nc(CCc2ccccc2)c1)N1CCC[C@H]1CN1CCCC1 [Compound 274]	> 10
